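These data come from cells grown in 96-well plates and exposed to compound for 48 hours at five concentrations. GI50 is the concentration that inhibits growth by half.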 Activity calls are given as the source filed them. Cut-off read from the data, not from the text of the source: active = GI50 up to about 1.1 µM and inactive = higher.
Columns and labels:
Assay in all cases: DTP human tumour cell line panel, 48 h
TK-10 = system: TK-10
SNB-75 = system: SNB-75
HL-60 = system: HL-60
MCF7 = system: MCF7
OVCAR-8 = system: OVCAR-8
SK-MEL-5 = system: SK-MEL-5
T47D = system: T47D
M14 = system: M14
RPMI-8226 = system: RPMI-8226
SF-295 = system: SF-295
CAKI-1 = system: CAKI-1
MDA-MB-231 = system: MDA-MB-231
DU-145 = system: DU-145
SK-OV-3 = system: SK-OV-3
SK-MEL-28 = system: SK-MEL-28
BT-549 = system: BT-549
SF-539 = system: SF-539
HOP-92 = system: HOP-92
NCI-H522 = system: NCI-H522
A549 = system: A549
ACHN = system: ACHN
SK-MEL-2 = system: SK-MEL-2
COLO 205 = system: COLO 205
SR = system: SR
K562 = system: K562
NCI-H460 = system: NCI-H460
HCC 2998 = system: HCC 2998
SW-620 = system: SW-620
SN12C = system: SN12C
UO-31 = system: UO-31
NCI/ADR-RES = system: NCI/ADR-RES
Malme-3M = system: Malme-3M
HCT-15 = system: HCT-15
KM12 = system: KM12
Hs-578T = system: Hs-578T
OVCAR-4 = system: OVCAR-4
PC-3 = system: PC-3
A498 = system: A498
HOP-62 = system: HOP-62
HCT-116 = system: HCT-116
NCI-H23 = system: NCI-H23
UACC-62 = system: UACC-62
UACC-257 = system: UACC-257
EKVX = system: EKVX
OVCAR-5 = system: OVCAR-5
MDA-N = system: MDA-N
RXF 393 = system: RXF 393
HT-29 = system: HT-29
786-0 = system: 786-0
CCRF-CEM = system: CCRF-CEM
LOX IMVI = system: LOX IMVI
MOLT-4 = system: MOLT-4
IGROV-1 = system: IGROV-1
SF-268 = system: SF-268
SNB-19 = system: SNB-19
MDA-MB-435 = system: MDA-MB-435
OVCAR-3 = system: OVCAR-3
U-251 = system: U-251
NCI-H226 = system: NCI-H226

Nc1ccc(-c2nc3cc(F)ccc3s2)cc1
GI50 (TK-10): 30.5 µM (inactive)
GI50 (SNB-75): 11.2 µM (inactive)
GI50 (HL-60): 25.4 µM (inactive)
GI50 (MCF7): < 0.01 µM (active)
GI50 (OVCAR-8): > 95.9 µM (inactive)
GI50 (SK-MEL-5): 61.4 µM (inactive)
GI50 (T47D): 0.424 µM (active)
GI50 (M14): 71.6 µM (inactive)
GI50 (RPMI-8226): > 100 µM (inactive)
GI50 (SF-295): 25.5 µM (inactive)
GI50 (CAKI-1): 27.7 µM (inactive)
GI50 (MDA-MB-231): 22.5 µM (inactive)
GI50 (DU-145): 30.5 µM (inactive)
GI50 (SK-OV-3): > 94.2 µM (inactive)
GI50 (SK-MEL-28): > 100 µM (inactive)
GI50 (BT-549): > 100 µM (inactive)
GI50 (SF-539): > 66.1 µM (inactive)
GI50 (HOP-92): 23.1 µM (inactive)
GI50 (NCI-H522): 53.5 µM (inactive)
GI50 (A549): 87.7 µM (inactive)
GI50 (ACHN): 20.6 µM (inactive)
GI50 (SK-MEL-2): 30.8 µM (inactive)
GI50 (COLO 205): 61 µM (inactive)
GI50 (SR): 5.96 µM (inactive)
GI50 (K562): > 100 µM (inactive)
GI50 (NCI-H460): 7.98 µM (inactive)
GI50 (HCC 2998): 26.3 µM (inactive)
GI50 (SW-620): > 100 µM (inactive)
GI50 (SN12C): > 100 µM (inactive)
GI50 (UO-31): > 60 µM (inactive)
GI50 (NCI/ADR-RES): > 100 µM (inactive)
GI50 (Malme-3M): > 100 µM (inactive)
GI50 (HCT-15): 17.6 µM
GI50 (KM12): > 68.4 µM (inactive)
GI50 (Hs-578T): 37.7 µM (inactive)
GI50 (OVCAR-4): > 36.7 µM (inactive)
GI50 (PC-3): 16.5 µM (inactive)
GI50 (A498): 33.5 µM (inactive)
GI50 (HOP-62): 18.3 µM (inactive)
GI50 (HCT-116): > 69.8 µM (inactive)
GI50 (NCI-H23): 1.43 µM (inactive)
GI50 (UACC-62): 28.6 µM (inactive)
GI50 (UACC-257): > 43.4 µM (inactive)
GI50 (EKVX): 2 µM (inactive)
GI50 (OVCAR-5): 26.4 µM (inactive)
GI50 (MDA-N): > 100 µM (inactive)
GI50 (RXF 393): 32.3 µM (inactive)
GI50 (HT-29): > 91 µM (inactive)
GI50 (786-0): > 85.3 µM (inactive)
GI50 (CCRF-CEM): > 45.6 µM (inactive)
GI50 (LOX IMVI): 45.1 µM (inactive)
GI50 (MOLT-4): > 82.2 µM (inactive)
GI50 (IGROV-1): 13 µM (inactive)
GI50 (SF-268): 31 µM (inactive)
GI50 (SNB-19): > 100 µM (inactive)
GI50 (MDA-MB-435): > 100 µM (inactive)
GI50 (OVCAR-3): > 90.2 µM (inactive)
GI50 (U-251): 39.4 µM (inactive)

COc1ccc2c(c1)CCC(CN1CCN(CCOC(c3ccc(F)cc3)c3ccc(F)cc3)CC1)C2O (stereo not drawn)
GI50 (TK-10): 15 µM (inactive)
GI50 (SNB-75): 16.8 µM (inactive)
GI50 (HL-60): 0.687 µM (active)
GI50 (MCF7): 19.3 µM (inactive)
GI50 (OVCAR-8): 13.8 µM (inactive)
GI50 (SK-MEL-5): 5.65 µM (inactive)
GI50 (T47D): 11.2 µM (inactive)
GI50 (M14): 12.2 µM (inactive)
GI50 (RPMI-8226): 6.75 µM (inactive)
GI50 (SF-295): 17.9 µM (inactive)
GI50 (CAKI-1): 15.8 µM (inactive)
GI50 (MDA-MB-231): 13.6 µM (inactive)
GI50 (DU-145): 18.1 µM (inactive)
GI50 (SK-OV-3): 15.5 µM (inactive)
GI50 (SK-MEL-28): 14.6 µM (inactive)
GI50 (BT-549): 14.4 µM (inactive)
GI50 (NCI-H226): 16 µM (inactive)
GI50 (SF-539): 30.3 µM (inactive)
GI50 (HOP-92): 12.2 µM (inactive)
GI50 (NCI-H522): 14.8 µM (inactive)
GI50 (A549): 16.3 µM (inactive)
GI50 (ACHN): 5.93 µM (inactive)
GI50 (SK-MEL-2): 15 µM (inactive)
GI50 (COLO 205): 4.59 µM (inactive)
GI50 (SR): 6.28 µM (inactive)
GI50 (K562): 4.51 µM (inactive)
GI50 (NCI-H460): 16.4 µM (inactive)
GI50 (HCC 2998): 3.49 µM (inactive)
GI50 (SW-620): 21.1 µM (inactive)
GI50 (SN12C): 17.3 µM (inactive)
GI50 (NCI/ADR-RES): 12.5 µM (inactive)
GI50 (Malme-3M): 14.4 µM (inactive)
GI50 (HCT-15): 10.4 µM
GI50 (KM12): 19.1 µM (inactive)
GI50 (Hs-578T): 15.4 µM (inactive)
GI50 (OVCAR-4): 14.2 µM (inactive)
GI50 (PC-3): 11.7 µM (inactive)
GI50 (A498): 3.93 µM (inactive)
GI50 (HOP-62): 16.1 µM (inactive)
GI50 (HCT-116): 11.1 µM (inactive)
GI50 (NCI-H23): 14.5 µM (inactive)
GI50 (UACC-62): 11.5 µM (inactive)
GI50 (UACC-257): 12.9 µM (inactive)
GI50 (EKVX): 11.6 µM (inactive)
GI50 (OVCAR-5): 15.2 µM (inactive)
GI50 (MDA-N): 15.6 µM (inactive)
GI50 (RXF 393): 12.3 µM (inactive)
GI50 (HT-29): 5.09 µM (inactive)
GI50 (786-0): 11.7 µM (inactive)
GI50 (CCRF-CEM): 14.9 µM (inactive)
GI50 (LOX IMVI): 15.3 µM (inactive)
GI50 (MOLT-4): 10.5 µM (inactive)
GI50 (IGROV-1): 13.8 µM (inactive)
GI50 (SF-268): 13.9 µM (inactive)
GI50 (SNB-19): 17.2 µM (inactive)
GI50 (MDA-MB-435): 16 µM (inactive)
GI50 (OVCAR-3): 14.9 µM (inactive)
GI50 (U-251): 13.3 µM (inactive)

O=C1C(Nc2ccccc2)=CC2=NCCc3n[nH]c1c32
GI50 (TK-10): > 100 µM (inactive)
GI50 (SNB-75): > 100 µM (inactive)
GI50 (HL-60): 21.1 µM (inactive)
GI50 (MCF7): 26.7 µM (inactive)
GI50 (OVCAR-8): 21 µM (inactive)
GI50 (SK-MEL-5): 18.5 µM (inactive)
GI50 (T47D): 34.4 µM (inactive)
GI50 (M14): 46.8 µM (inactive)
GI50 (RPMI-8226): 26.4 µM (inactive)
GI50 (SF-295): 38.6 µM (inactive)
GI50 (CAKI-1): 72.6 µM (inactive)
GI50 (MDA-MB-231): 34.8 µM (inactive)
GI50 (DU-145): 64 µM (inactive)
GI50 (SK-OV-3): > 100 µM (inactive)
GI50 (SK-MEL-28): 68.1 µM (inactive)
GI50 (BT-549): 40.8 µM (inactive)
GI50 (SF-539): 35.7 µM (inactive)
GI50 (HOP-92): 45.8 µM (inactive)
GI50 (NCI-H522): 32.5 µM (inactive)
GI50 (A549): 84.9 µM (inactive)
GI50 (ACHN): 55.6 µM (inactive)
GI50 (SK-MEL-2): 61.7 µM (inactive)
GI50 (COLO 205): 33.1 µM (inactive)
GI50 (SR): 25.2 µM (inactive)
GI50 (K562): 38.5 µM (inactive)
GI50 (NCI-H460): 35.9 µM (inactive)
GI50 (HCC 2998): 34.8 µM (inactive)
GI50 (SW-620): 34.4 µM (inactive)
GI50 (SN12C): 34.8 µM (inactive)
GI50 (UO-31): 55.8 µM (inactive)
GI50 (NCI/ADR-RES): 28.6 µM (inactive)
GI50 (Malme-3M): 14.4 µM (inactive)
GI50 (HCT-15): 19.8 µM
GI50 (KM12): 20.4 µM (inactive)
GI50 (Hs-578T): 42.2 µM (inactive)
GI50 (OVCAR-4): 27.2 µM (inactive)
GI50 (PC-3): 33.1 µM (inactive)
GI50 (A498): 61.4 µM (inactive)
GI50 (HOP-62): 91.2 µM (inactive)
GI50 (HCT-116): 18 µM (inactive)
GI50 (NCI-H23): 33.9 µM (inactive)
GI50 (UACC-62): 21.5 µM (inactive)
GI50 (EKVX): 41.1 µM (inactive)
GI50 (OVCAR-5): > 100 µM (inactive)
GI50 (MDA-N): 16.3 µM (inactive)
GI50 (RXF 393): > 100 µM (inactive)
GI50 (HT-29): 37 µM (inactive)
GI50 (786-0): 38.5 µM (inactive)
GI50 (CCRF-CEM): 22.3 µM (inactive)
GI50 (LOX IMVI): 13.9 µM (inactive)
GI50 (MOLT-4): 30.1 µM (inactive)
GI50 (IGROV-1): 37.8 µM (inactive)
GI50 (SF-268): 65.2 µM (inactive)
GI50 (SNB-19): 63.8 µM (inactive)
GI50 (MDA-MB-435): 17.2 µM (inactive)
GI50 (OVCAR-3): 25 µM (inactive)
GI50 (U-251): 37.4 µM (inactive)

Source: ChEMBL document CHEMBL1201862, “PubChem BioAssay data set” (2004)
